Experiments:
[1] = system: deficit of memory induced by cycloheximide; experiment: Passive avoidance test; assay type: in vivo; conditions: Dose 0.032 mg/kg i.p.; ddY strain male mice given cycloheximide 30 mg/kg S.C.; step-down latency 24 hours after training
From the text: 6-Weeks old ddY strain male mice (20 per group) were used. The effect of the test compound on deficit of memory induced by cycloheximide (a protein synthesis inhibitor) in passive avoidance task was examined.
The apparatus consists of a grid floor enclosed by a transparent acryl glass wall each section of which was 30 cm². At the center of this grid a wooden platform of 4 x 4 x 4 cm was fixed. This apparatus was set in a wooden semisoundproof box of 35 x 35 x 90 cm fitted with a 15W tungsten lamp.
Each mouse in groups (A), (B) and (C) was placed on the platform.
When the mouse stepped down from the platform and placed all its paws on the grid floor, an intermittent electrical footshock (1Hz, 0.5 sec, 60V, DC) was delivered for 15 seconds through the grid floor. […]
24 Hours after the training, each mouse was placed again on the platform and the response latency to step down from the platform was measured to an extent of 300 seconds at the longest.
Results were recorded as the mean response latency of step down for each experimental group of mice. […]

acetylcholinesterase = biological target: T1, acetylcholinesterase (Rattus norvegicus, UniProt P37136); experiment: Inhibition of acetylcholinesterase (enzyme assay); assay type: biochemical
T1 construct: The acetylcholinesterase used in this test was obtained from rat's corpus striatum; from tissue; host or cells: rat corpus striatum
T1 sequence (P37136 32-614): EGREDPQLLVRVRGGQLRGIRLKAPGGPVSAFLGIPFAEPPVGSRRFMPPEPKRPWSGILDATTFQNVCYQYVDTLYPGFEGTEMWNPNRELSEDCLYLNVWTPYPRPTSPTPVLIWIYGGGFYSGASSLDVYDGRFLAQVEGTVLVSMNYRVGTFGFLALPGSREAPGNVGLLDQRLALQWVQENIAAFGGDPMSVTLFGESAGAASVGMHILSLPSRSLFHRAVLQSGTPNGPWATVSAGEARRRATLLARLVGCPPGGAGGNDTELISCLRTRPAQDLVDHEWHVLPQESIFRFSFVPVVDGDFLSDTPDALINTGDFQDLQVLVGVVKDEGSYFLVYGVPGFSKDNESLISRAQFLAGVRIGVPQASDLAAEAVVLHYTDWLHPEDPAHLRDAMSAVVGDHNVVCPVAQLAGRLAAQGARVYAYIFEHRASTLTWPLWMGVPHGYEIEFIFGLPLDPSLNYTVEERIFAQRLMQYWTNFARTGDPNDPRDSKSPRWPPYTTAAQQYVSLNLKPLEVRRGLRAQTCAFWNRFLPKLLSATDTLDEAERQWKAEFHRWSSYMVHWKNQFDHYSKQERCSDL
Method: The ability to inhibit acetylcholinesterase was determined by the method (enzyme assay) described in Clinica Chimica Acta, 115 (1981) 163-170. The acetylcholinesterase used in this test was obtained from rat's corpus striatum.

Row | Structure (SMILES) | Percentage of Recovery (%) [1] [%] | IC50 (acetylcholinesterase) [µM]
1 | CC1(C)CCc2c(nc3cc(Cl)ccc3c2N)C1 [9-Amino-6-chloro-3,3-dimethyl-1,2,3,4-tetrahydroacridine] | 95 | –
2 | Cc1ccc2c(N)c3c(nc2c1)CC(C)(C)CC3O (racemic) [(±)-9-Amino-1-hydroxy-3,3,6-trimethyl-1,2,3,4-tetrahydroacridine] | – | 0.87
